Results published in patent US7148338B2, “Nucleic acids encoding dipeptidyl peptidases” (The University of Sydney, priority 1999, dated 2006).
Blank lines part the entries; values can stand above or below the molecule they belong to. Non-standard residues stand in square brackets, D forms with d. Residues, ends and D or L forms follow the SMILES beside them. *: point of attachment. Sta = CC(C)C[C@H](N)[C@@H](O)CC(=O)O; pNA = O=[N+]([O-])c1ccc(N*)cc1; Isovaleryl = CC(C)CC(=O)*; Cbz = O=C(OCc1ccccc1)*

Key:
DPPIV [1] = molecular target: T1, DPPIV (Homo sapiens, UniProt P27487); test: Inhibition of peptidase activity of purified DPPIV, substrate H-Gly-Pro-pNA; type: biochemical; design: His tag; made in house; host or cells: transfected COS-7 cells; solubilised with 1% Triton X-100; conditions: 1 mM H-Gly-Pro-pNA, pH 7.4
T1 sequence (P27487 whole entry): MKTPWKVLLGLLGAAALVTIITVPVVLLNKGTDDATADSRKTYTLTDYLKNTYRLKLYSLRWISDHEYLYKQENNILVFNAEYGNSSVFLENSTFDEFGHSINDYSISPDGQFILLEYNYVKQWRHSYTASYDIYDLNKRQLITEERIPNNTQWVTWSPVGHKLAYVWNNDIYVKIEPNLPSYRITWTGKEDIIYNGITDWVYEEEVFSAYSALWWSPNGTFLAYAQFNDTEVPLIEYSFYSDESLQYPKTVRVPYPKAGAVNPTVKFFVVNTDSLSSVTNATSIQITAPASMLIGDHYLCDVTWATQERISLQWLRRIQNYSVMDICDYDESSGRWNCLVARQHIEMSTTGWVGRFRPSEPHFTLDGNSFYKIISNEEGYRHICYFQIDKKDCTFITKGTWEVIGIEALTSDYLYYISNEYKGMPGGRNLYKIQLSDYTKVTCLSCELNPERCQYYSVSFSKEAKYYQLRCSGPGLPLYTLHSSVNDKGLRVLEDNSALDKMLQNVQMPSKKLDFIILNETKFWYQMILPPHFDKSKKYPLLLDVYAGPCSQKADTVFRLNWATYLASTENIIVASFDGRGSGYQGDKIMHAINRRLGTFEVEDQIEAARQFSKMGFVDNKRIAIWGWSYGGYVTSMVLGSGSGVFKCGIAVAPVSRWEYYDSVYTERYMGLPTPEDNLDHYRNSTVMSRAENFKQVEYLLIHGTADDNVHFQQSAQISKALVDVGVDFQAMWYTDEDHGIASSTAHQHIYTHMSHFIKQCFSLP
Procedure: (§1) Cells (1×10^7) expressing each protein were sonicated in native buffer (50 mM sodium phosphate, 300 mM NaCl), then treated with 700 U DNAse for 20 min at room temperature. DPPIV is expressed at the cell surface, so 1% Triton X-100 was used to solubilize DPPIV/V5/His. Insoluble material was removed by centrifugation. The supernatant was incubated with 1 mL Talon® Metal Affinity Resin (Clontech) following the manufacturer's instructions for a batch/gravity flow procedure. The resin was washed with 50 mM sodium phosphate, containing 300 mM NaCl and 5 mM imidazole, and proteins were eluted using the same buffer containing 150 mM imidazole. Enzyme activity was used to monitor eluted fractions.
(§2) Enzyme assays were performed as described previously. Either clarified cell extract from 1×10^4 sonicated COS-7 cells or purified protein derived from 1×10^5 cells was incubated with substrate in 70 μL phosphate buffer, pH 7.4, for 30 min at 37° C., except where otherwise indicated. The specific DPPIV substrates, Gly-Pro-toluenesulfonate, H-Gly-Pro-p-nitroanilide (NA)/HCl (Sigma, St Louis, Mo., USA) and Gly-Pro-7-amino-4-trifluromethylcoumarin (Calbiochem, San Diego, Calif., USA) were tested. Other substrates tested were H-Ala-Pro-pNA/HCl, H-Arg-Pro-pNA acetate salt, H-Lys-Ala-pNA.2HCl, H-Asp-Pro-pNA, H-Ala-Ala-pNA/HCl, H-Ala-Ala-Pro-pNA/HCl, H-Ala-Ala-Phe-pNA, succinyl-Ala-Pro-pNA, H-Ala-Phe-Pro-pNA and Z-Ala-Pro-p-NA from Bachem (Switzerland). H-Ala-Pro-4-methoxyβNA/HCl, Z-Lys-Pro-4-methoxyβNAformate salt, H-Lys-Pro-4-methoxyβNA/HCl, Z-Ala-Pro-4-methoxyβNA, H-Gly-Pro-βNA and H-His-Ser-4-methoxyβNAacetate salt (Bachem) were tested for their ability to stain unfixed transfected cells. All inhibitors were (see Table 2) incubated with each purified enzyme in phosphate buffer, pH 7.4, for 15 min before the addition of substrate. After the addition of 1 mM H-Ala-Pro-pNA substrate for purified DPP8 and 1 mM H-Gly-Pro-pNA substrate for purified DPPIV, samples were incubated for 60 min at 37° C. All enzyme assays were performed in triplicate.

DPP8 [2] = molecular target: T2, DPP8 (Homo sapiens, UniProt Q6V1X1); test: Inhibition of peptidase activity of purified DPP8, substrate H-Ala-Pro-pNA; type: biochemical; design: the full length DPP8 cDNA of 3.1 kb was cloned into the Xba I site of pcDNA3.1A/V5/His expression vector; His tag (C); made in house; host or cells: COS-7 cells, stably transfected; conditions: for Residual activity (% of control): 1 mM H-Ala-Pro-pNA, pH 7.4
T2 sequence (Q6V1X1 17-898 limits assumed): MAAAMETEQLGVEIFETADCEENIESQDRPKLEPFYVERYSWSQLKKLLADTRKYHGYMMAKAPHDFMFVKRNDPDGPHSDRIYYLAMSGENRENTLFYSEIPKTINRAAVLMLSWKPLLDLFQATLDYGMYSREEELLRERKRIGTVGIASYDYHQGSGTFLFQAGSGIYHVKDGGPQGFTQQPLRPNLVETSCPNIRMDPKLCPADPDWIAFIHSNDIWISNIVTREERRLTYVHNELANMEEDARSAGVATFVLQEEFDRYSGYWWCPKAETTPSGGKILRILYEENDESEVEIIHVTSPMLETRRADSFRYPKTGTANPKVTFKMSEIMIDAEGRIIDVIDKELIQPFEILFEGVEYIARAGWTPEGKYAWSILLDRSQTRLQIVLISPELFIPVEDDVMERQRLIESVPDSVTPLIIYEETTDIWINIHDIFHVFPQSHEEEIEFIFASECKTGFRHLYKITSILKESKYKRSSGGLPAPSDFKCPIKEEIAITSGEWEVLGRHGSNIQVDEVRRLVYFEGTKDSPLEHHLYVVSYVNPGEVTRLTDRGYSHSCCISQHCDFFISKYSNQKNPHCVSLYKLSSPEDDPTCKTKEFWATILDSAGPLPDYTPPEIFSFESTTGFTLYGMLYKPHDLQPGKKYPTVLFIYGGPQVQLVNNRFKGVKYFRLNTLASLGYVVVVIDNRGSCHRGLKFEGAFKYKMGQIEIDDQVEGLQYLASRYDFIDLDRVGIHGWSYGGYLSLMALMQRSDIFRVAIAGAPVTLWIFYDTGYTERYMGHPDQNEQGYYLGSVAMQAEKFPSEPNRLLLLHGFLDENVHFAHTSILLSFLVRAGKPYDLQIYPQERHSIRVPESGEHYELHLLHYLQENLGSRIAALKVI
Procedure: as §1, §2

[3] = system: DPP8-transfected COS cells and CHO cells; test: Cytochemical staining of unfixed transfected cell monolayers by substrates; type: cell-based; conditions: data not shown
Procedure: (§3) Monkey kidney fibroblast (COS-7) cells (American Type Culture Collection, CRL-1651) were grown and transfected as described previously. For making stable cell lines, Geneticin (G418; Gibco-BRL) was added to the medium, beginning 24 h after transfection. COS cell extracts were prepared by sonication followed by differential centrifugation and neither boiled nor reduced before SDS/PAGE (10% gel) and transfer to nitrocellulose, as described previously. The presence of DPP8 fused with the V5 epitope was detected using an anti-V5 mAb (Invitrogen). COS cell monolayers were fixed in cold ethanol before staining with anti-V5 mAb. Some monolayers were fixed in 4% paraformaldehyde and permeabilized with 0.1% Triton X-100 [35], then double-stained with wheat germ agglutinin to label Golgi apparatus and with goat anti-mouse IgG to label DPP8, conjugated to Alexa Fluor 488 and Alexa Fluor 594, respectively (Molecular Probes, Eugene, Oreg., USA). Flow cytometry and confocal scanning microscopy using a Leica TCS-NT confocal microscope have been described previously.
Enzyme assays were performed as described previously. Either clarified cell extract from 1×10^4 sonicated COS-7 cells or purified protein derived from 1×10^5 cells was incubated with substrate in 70 μL phosphate buffer, pH 7.4, for 30 min at 37° C., except where otherwise indicated. […]

DPP8/V5/His = molecular target: T3, DPP8/V5/His (Homo sapiens, UniProt Q6V1X1); test: Substrate hydrolysis by purified recombinant DPP8/V5/His; type: biochemical
T3 construct: the full length DPP8 cDNA of 3.1 kb was cloned into the Xba I site of pcDNA3.1A/V5/His expression vector; His tag (C); made in house; host or cells: COS-7 cells, stably transfected
T3 sequence (Q6V1X1 17-898 limits assumed): as above
Procedure: as §1, §2

DPP8 [4] = molecular target: T2, DPP8; test: Substrate hydrolysis by extracts of DPP8-transfected COS-7 cells; type: biochemical; design: the full length DPP8 cDNA of 3.1 kb was cloned into the Xba I site of pcDNA3.1A/V5/His expression vector; expressed in transfected cells; host or cells: COS-7 (monkey kidney fibroblast) cells; clarified sonicated cell extract; conditions: above the levels of untransfected COS-7 cells; data not shown
Procedure: as §3, §2
DPPIV expressed in COS-7 cells with or without the V5/His tag were positive controls, and negative controls included vector-only transfected COS07 cells. […] The pH optimum of DPP8 enzyme activity was 7.4 (FIG. 5A), similar to the pH 7.8 optimum DPPIV enzyme activity. […]

DPPIV/V5/His = molecular target: T4, DPPIV/V5/His (Homo sapiens, UniProt P27487); test: Substrate hydrolysis by purified recombinant DPPIV/V5/His; type: biochemical
T4 construct: His tag; made in house; host or cells: transfected COS-7 cells; solubilised with 1% Triton X-100
T4 sequence (P27487 whole entry): as the sequence (P27487 whole entry) above
Procedure: as §1, §2

DPPIV [5] = molecular target: T1, DPPIV; test: Enzyme kinetics (Km, Vmax) of purified DPPIV; type: biochemical; design: His tag; made in house; host or cells: transfected COS-7 cells; solubilised with 1% Triton X-100; conditions: for Km: Michaelis-Menten fit
Procedure: (§4) FIG. 7. DPP8 enzyme activity. (A) pH-dependence of DPP8 enzyme activity. (B) DPP8 and DPPIV enzyme kinetics. Means +/− SD of absorbance change per minute, multiplied by 1000 are shown. Curve fitting assumed Michaelis-Menten kinetics.
as §1, §2

DPP8 [6] = molecular target: T2, DPP8; test: Enzyme kinetics (Km, Vmax) of purified DPP8; type: biochemical; design: the full length DPP8 cDNA of 3.1 kb was cloned into the Xba I site of pcDNA3.1A/V5/His expression vector; His tag (C); made in house; host or cells: COS-7 cells, stably transfected; conditions: for Km: Michaelis-Menten fit
Procedure: as §4, §1, §2

DPPIV [7] = molecular target: T1, DPPIV; conditions: reference [46]; cited from earlier work

Molecule: O[C@H](CS)[C@H](O)CS (racemic) [Dithiothreitol]
Residual activity (% of control) (DPPIV [1]; inhibitor 2 mM): 109 % of control
Residual activity (% of control) (DPP8 [2]; inhibitor 2 mM): 108 % of control

Molecule: COc1cc(NC(=O)[C@@H]2CCCN2C(=O)[C@H](C)N)cc2ccccc12.Cl [Ala-Pro-4MβNA/HCl, H-Ala-Pro-4-methoxyβNA/HCl]
Staining of DPP8-transfected cells by substrate [3]: stained

Molecule: Cl.N=C(N)c1ccccc1 [Benzamidine/HCl]
Residual activity (% of control) (DPPIV [1]; inhibitor 10 mM): 89 % of control
Residual activity (% of control) (DPP8 [2]; inhibitor 10 mM): 82 % of control

Molecule: C[C@H](N)C(=O)N[C@@H](C)C(=O)N[C@@H](Cc1ccccc1)C(=O)Nc1ccc([N+](=O)[O-])cc1 [H-Ala-Ala-Phe-pNA] (H-Ala-Ala-Phe-pNA)
Hydrolysis (cleavage) of substrate by purified recombinant DPP8 (DPP8/V5/His): neither

Molecule: C[C@H](N)C(=O)N[C@@H](C)C(=O)N1CCC[C@H]1C(=O)Nc1ccc([N+](=O)[O-])cc1.Cl [H-Ala-Ala-Pro-pNA] (H-Ala-Ala-Pro-pNA)
Hydrolysis of substrate by extracts of DPP8-transfected COS-7 cells (DPP8 [4]): exhibited tripeptidyl peptidase activity

Molecule: C[C@H](N)C(=O)N[C@@H](Cc1ccccc1)C(=O)N1CCC[C@H]1C(=O)Nc1ccc([N+](=O)[O-])cc1 [H-Ala-Phe-Pro-pNA] (H-Ala-Phe-Pro-pNA)
Hydrolysis (cleavage) of substrate by purified recombinant DPP8 (DPP8/V5/His): neither

Molecule: NC(=O)CI [Iodoacetamide]
Residual activity (% of control) (DPPIV [1]; inhibitor 2 mM): 115 % of control
Residual activity (% of control) (DPP8 [2]; inhibitor 2 mM): 100 % of control

Molecule: CC(=O)N[C@@H](CC(C)C)C(=O)N[C@@H](CC(C)C)C(=O)N[C@H](C=O)CCCNC(=N)N [Leupeptin]
Residual activity (% of control) (DPPIV [1]; inhibitor 0.1 mM): 104 % of control
Residual activity (% of control) (DPP8 [2]; inhibitor 0.1 mM): 93 % of control

Molecule: O=S(=O)([O-])[O-].[Zn+2] [Zinc sulphate]
Inhibition of DPPIV enzyme activity (in words) (DPPIV [7]): completely inhibits

Molecule: Aprotinin
Residual activity (% of control) (DPPIV [1]; inhibitor 4 μg mL^−1): 81 % of control
Residual activity (% of control) (DPP8 [2]; inhibitor 4 μg mL^−1): 47 % of control

Further lines, results first:

Hydrolysis of substrate by extracts of DPP8-transfected COS-7 cells (DPP8 [4]): hydrolyzed
Hydrolysis of substrate by purified recombinant DPPIV (DPPIV/V5/His): hydrolyzed
Hydrolysis (cleavage) of substrate by purified recombinant DPP8 (DPP8/V5/His): hydrolyzed
Vmax (DPPIV [5]): 9.6 ± 1.0 ΔA min^−1 × 1000
Km (DPPIV [5]): 374 ± 134 µM
Vmax (DPP8 [6]): 12.4 ± 0.9 ΔA min^−1 × 1000
Km (DPP8 [6]): 991 ± 171 µM
Molecule: C[C@H](N)C(=O)N1CCC[C@H]1C(=O)Nc1ccc([N+](=O)[O-])cc1 [H-Ala-Pro-pNA] (H-Ala-Pro-pNA)

Hydrolysis of substrate by extracts of DPP8-transfected COS-7 cells (DPP8 [4]): hydrolyzed
Hydrolysis of substrate by purified recombinant DPPIV (DPPIV/V5/His): hydrolyzed
Hydrolysis (cleavage) of substrate by purified recombinant DPP8 (DPP8/V5/His): hydrolyzed
Molecule: NC(N)=NCCC[C@H](N)C(=O)N1CCC[C@H]1C(=O)Nc1ccc([N+](=O)[O-])cc1 [H-Arg-Pro-pNA] (H-Arg-Pro-pNA)

Hydrolysis of substrate by purified recombinant DPPIV (DPPIV/V5/His): hydrolyzed
Hydrolysis (cleavage) of substrate by purified recombinant DPP8 (DPP8/V5/His): hydrolyzed
Vmax (DPPIV [5]): 7.2 ± 0.49 ΔA min^−1 × 1000
Km (DPPIV [5]): 347 ± 88 µM
Vmax (DPP8 [6]): 3.5 ± 0.14 ΔA min^−1 × 1000
Km (DPP8 [6]): 467 ± 64 µM
Molecule: NCC(=O)N1CCC[C@H]1C(=O)Nc1ccc([N+](=O)[O-])cc1 [H-Gly-Pro-pNA, H-Gly-Pro-p-nitroanilide] (H-Gly-Pro-pNA)

Residual activity (% of control) (DPPIV [1]; inhibitor 2 μg mL^−1): 110 % of control
Residual activity (% of control) (DPP8 [2]; inhibitor 2 μg mL^−1): 107 % of control
Molecule: CC(C)CC(=O)N[C@H](C(=O)N[C@H](C(=O)N[C@@H](CC(C)C)[C@@H](O)CC(=O)N[C@@H](C)C(=O)N[C@@H](CC(C)C)[C@@H](O)CC(=O)O)C(C)C)C(C)C [Pepstatin] (Isovaleryl-VV[Sta]A[Sta]-OH)

Hydrolysis of substrate by extracts of DPP8-transfected COS-7 cells (DPP8 [4]): endopeptidase activity
Molecule: C[C@H](NC(=O)OCc1ccccc1)C(=O)N1CCC[C@H]1C(=O)Nc1ccc([N+](=O)[O-])cc1 [Z-Ala-Pro-pNA] (Cbz-Ala-Pro-pNA)

Residual activity (% of control) (DPPIV [1]; inhibitor 10 mM): 67 % of control
Residual activity (% of control) (DPP8 [2]; inhibitor 10 mM): 51 % of control
Inhibition of DPP8 enzyme activity (in words) (DPP8 [2]; purified DPP8): probably competitively inhibited
Molecule: Ala-Pro-Gly (APG) [peptide that mimics DPP8 substrates]

Residual activity (% of control) (DPPIV [1]; inhibitor 10 mM): 106 % of control
Residual activity (% of control) (DPP8 [2]; inhibitor 10 mM): 99 % of control
Molecule: Gly-Gly-Gly (GGG) [peptide]
